Experimental findings from patent US11638424B2, “Mosquito attractant formulations and uses thereof” (priority 2017, dated 2023) are described below.

Structures are written as SMILES.

Common to all, as to assay type: in vivo
In one test the test system is A. gambiae s.l. The experiment in a line: Olfactometer bioassay (larger Y-tube olfactometer / wind tunnel assay). Particulars: RBCs+CO2 vs hRBCs, FIG. 2A.
Test [1] deals with A. gambiae sensu lato. Nature of the test: Fosmidomycin assay (feeding on media of FR-900098-treated, IPP-rescued parasite culture). The settings on record: supplemented with IPP, 90 s feeding, FIG. 1D. The method, then: The fosmidomycin assay was carried out as previously described (12). 48 hours (h) after the initiation of antibiotic treatment (FR-900098, the N-acetyl analogue to fosmidomycin), asexual parasite cultures were rescued by supplementation with 200 μM IPP for 48 h of continued passaging. Media from the rescued culture were collected and offered to mosquitoes, in comparison with media from control parasites (without antibiotic treatment). Fifty mosquitoes, isolated in two separate cages, were offered different treatments. Each group was allowed to feed on its own membrane feeder for 90 s.

The test system of test [2] is A. gambiae sensu lato. The experiment in a line: Dual choice attraction bioassay (Y-tube olfactometer). The settings on record: added to RBCs. The method, then: Mosquitoes used in this study were from the laboratory colony of A. gambiae sensu lato (Keele line, University of Glasgow), which was produced by balanced interbreeding of four A. gambiae s.s. strains (H. Hurd, et al. Evolution, 59, 2560-2572 (2005)). Larvae were reared under standard insectary conditions (27±1° C., 70% humidity, 12 h light: 12 h dark cycle) and fed on TetraMin fish flakes (Tetra ltd., Germany). Pupae were transferred into holding cages for emergence. Emerged adults were fed ad libitum on 5% glucose solution, supplemented with 0.05% (w/v) 4-aminobenzoic acid (PABA, Sigma-Aldrich), through soaked filters on top of the 2 ml tubes and with soaked filter pads inside cages. Red blood cells (RBCs) were washed with Roswell Park Memorial Institute (RPMI) medium and stored in RPMI at 50% haematocrit at 4° C. until use. To measure the effect of HMBPP on mosquito fitness, RBCs stored in RPMI were centrifuged at 2500×g for 5 min followed by replacement of the medium with AB serum for a final haematocrit of 40%. HMBPP (stock concentration at 4 mM in Nanopure water, stored at −80° C.) was diluted to 10 μM in 1 ml RBC suspension, and the corresponding volume of Nanopure water was added to the control RBCs. All experiments were, unless otherwise stated, conducted on 5-7 days post-emergence female mosquitoes maintained in separated cages (approximately 210 individuals per cohort) and fed RBCs either with or without HMBPP for 30 min. All experiments were performed in triplicates.
Initial experiments were performed using a Y-tube olfactometer (length of the central cylinder and two arms: 25/15/15 cm respectively, inner diameter: 5 cm; see FIG. 1a). For each experiment, 180 female mosquitoes were individually placed in a release chamber and flown one by one. Females flew towards the upwind end (airflow 3 L min^−1) and entered one of two trapping chambers through which odour released from nearby membrane feeders passed (5 cm distance to each trapping chamber). Three experiments were conducted. In the first experiment, the membrane feeders were loaded with RBCs with or without HMBPP, while in the second they were loaded with serum with or without HMBPP. The third experiment was performed with a 5% glucose with 0.05% PABA solution with or without HMBPP. To control for possible spatial effects, the location of treatment at each olfactometer arm was switched every 30 minutes (˜15 mosquitoes flied one by one in each 30 minutes). Each replacement (feeder rotation with fresh RBCs) was counted as an experimental replicate (experimental block). Mosquitoes reaching any of the trapping chambers were considered to have made a choice. Each experiment was repeated six times with in total 180 mosquitoes per treatment.

Method for A. gambiae s.l.: Behavioural experiments were performed using different odour sources with and without pulsed CO2 stimuli in a Plexiglas Y shaped olfactometer (9.5 cm i.d.×length of the central cylinder and two arms: 120/120/120 cm respectively), illuminated from above at 280 lx. A charcoal-filtered and humidified air stream (25±2° C., RH 65±2%) passed through stainless steel mesh screens at 30 cm s^−1 to generate a laminar flow in the olfactometer. Odors were introduced into the air stream of each arm at the downwind end. […] Odor sources consisted of either RBC-based treatments or headspace extracts. RBC-based treatments included RBCs alone, hRBCs, giRBCs or ippRBCs (RBCs supplemented with HMBPP, gametocytes or IPP), as well as RBCs with supernatants from gametocyte-infected RBCs, or RBCs supplemented with the synthetic odour blend. Headspace extracts collected from hRBCs and giRBCs were used. Treatments including RBCs were heated to 37° C. prior to being pumped (150 ml min^−1) into the airstream of each arm separately. The blend and headspace extracts were delivered to each arm via a wick dispenser. Carbon dioxide (Strandmöllen) was introduced into a plume generator that was placed behind the metal screens to create a homogenous-pulsed flow, which was regulated by a stimulus controller (SEC-2/b, Syntech, Löptin Germany). […]

`O=C=O` [carbon dioxide, reference compound]: the “attraction to RBCs supplemented with carbon dioxide versus hRBCs” value with A. gambiae s.l. is “not sufficient to reproduce the full mosquito attraction to hRBCs”.
As to `CC(=O)N(O)CCCP(=O)(O)O` [fosmidomycin derivative], in the test on A. gambiae sensu lato [1], the “mosquito feeding after block of HMBPP synthesis in tiRBCs” value is reported as “reduction of feeding to control levels”.
Consider `C/C(=C\CO)CO` [(2E)-2-methylbut-2-ene-1,4-diol, reference compound], for which, in the test on A. gambiae sensu lato [2], the “effect on the attraction of mosquitoes to RBCs” value is recorded as “had no effect”.
